Experimental findings from patent publication US20250320138A1 (priority 2022, published 2025) are described below.

Each structure is given as a SMILES string. Where “and” joins values, the source holds several entries; their conditions need not be identical. Identical values can stand only once.

Experiment [1] deals with chlorine-resistant Methylobacterium strain. The class given is cell-based, Methylobacterium fujisawaense.
Experiment [2] has the same test system. The class given is cell-based, Methylobacterium fujisawaense. The source holds these as a separate data set.

For the molecule `O=[O+][O-]` [ozone], the bactericidal rate in experiment [1] was 0.0% and 9.4% and 2.1% and 5.0%. Further, the “inner structure of cell body (electron microscope)” value in experiment [2] was “an organization is packed inside the cell body similarly to the blank”.
